Eight molecules from patent US20150160193A1, “TUMOR CELL ISOLATION/PURIFICATION PROCESS AND METHODS FOR USE THEREOF” (DIATECH ONCOLOGY, priority 2012, published 2015) can be followed below.

Where two headings read alike, the source gives them in different places.

Assay [1] has as its system neoplastic cells collected from spleen and abdominal tumor biopsy specimens. The experiment in a line: MiCK assay, patient specific cancer cell testing (Example 10). The class given is cell-based, human. As to the method: The experiments were conducted on neoplastic cells collected from spleen and abdominal tumor biopsy specimens from a person. The tumor specimens were of an unknown primary. The experiment consisted of using a MiCK assay, according to the present disclosure, to test the effectiveness of 37 potential anti-cancer drugs, combinations of these drugs, and various concentrations of these drugs.
Apoptotic readings greater than 5.0KU in the MiCK assay are considered to be highly sensitive and are associated with a good clinical response. […] It should be noted that the alkylating agents cyclophosphamide and ifosfamide require hepatic metabolic transformation to their active metabolite, 4HC and 4HI respectively, and therefore cannot be tested directly in vitro. For the MiCK assay their active metabolites, 4HC and 4HI respectively were used.

The subject of assay [2] is Purified breast cancer cells from 67 patient (Pt) biopsies. The experiment in a line: MiCK assay of drug-induced apoptosis, breast cancer specimens. The format is cell-based, human. As to conditions: for KU Mean / KU Median: kinetic units of apoptosis; for KU Mean: mean over N patient samples (at least 9 per drug); for KU Median: median over N patient samples; for Mean Difference (95% CI) of KU vs Abraxane: drug minus Abraxane. As to the method:
Apoptosis(KU)=(VmaxDrug Candidate Treated−VmaxControl)×60×X/(ODcontrol−ODblank)
Within 24 to 48 hours of collection, the specimen was minced, digested with 0.25% trypsin and 0.08% DNase for 1-2 hours at 37 C.°, and then filtered through a 100 micrometer cell strainer. When necessary, non-viable cells were removed by density gradient centrifugation. The cell suspension was then incubated for 30 min at 37° C. in a tissue culture flask to remove macrophages by adherence. For epithelial tumors lymphocytes were removed by 30 minute incubation with CD2 antibody conjugated magnetic beads for T lymphocytes and CD19 antibody conjugated magnetic beads for B lymphocytes. Remaining macrophages were removed, if necessary, using CD14 antibody conjugated magnetic beads. The final cell suspension was plated into a 96-well half-area plate, 120 microliter aliquot per well. The plate was incubated overnight at 37° C. with 5% carbon dioxide humidified atmosphere. 5×10^4 to 1.5×10^5 cells were seeded per well depending on the cell volume to give adequate well-bottom coverage.
Within 24 to 48 hours of collection, the specimen was treated as follows in order to purify and isolate cells from solid tumors: • Take the specimen out of the transport tube. • Put in a petri dish in 13 ml of PBS+high concentration of antibiotics (200 units/ml Penicillin+200 μg/ml streptomycin) and take measurements and picture of the specimen. […] In that case, one may make the determination to do a “pre-filtration” using sterile gauze over a 50 ml tube. Then proceed with the cell strainer filtration process referenced above. • Centrifuge the filtered cell suspension 1500 RPM 5 min • Discard the supernatant. To the pellet, add 5 ml of red blood cell lysis solution (standard NH4Cl containing lysis solution: Nh4Cl0.15M+KHCO3 10 mM+EDTA-4Na 0.1 mM, pH 7.2), incubate 2-3 min and add 5 ml of RPMI 10% FBS. • Centrifuge 5 min 1500 RPM. Resuspend the pellet in RPMI 10% FBS (1-10 ml depending on the pellet size). • Collect the second fraction in the enzyme and repeat the steps above. • Check the viability of all fractions and pool. Do a cytospin stain with Wright Giemsa to verify the cell content of the population. NOTE: this is done numerous times during the process of purification. • 3) When necessary, non-viable cells were removed by density gradient centrifugation. • Density gradient centrifugation (optiprep): first layer=2 ml cells+4.45 ml optiprep 40% in RPMI, second layer=optiprep 22.5% in RPMI, 3rd layer=0.5 ml of RPMI. Centrifuge at 2000 RPM for 20 min • Collect the viable cell layer, add 10 ml of RPMI 10% FBS, centrifuge at 1500 RPM for 5 min • Resuspend the pellet in RPMI 10% FBS (volume depends on the pellet size and on the next step required). • If mucin is present in the specimen: resuspend the pellet in 10 ml of PBS+20 mM DTT and incubate at 4° C. for 30 min to disintegrate the mucin. Wash with RPMI 1500 rpm for 5 min Resuspend the pellet in RPMI 10% FBS. • If the specimen is highly necrotic with presence of debris: Percoll 20% in HBSS, centrifuge at 800×g for 10 min • 4) The cell suspension was then incubated for 20 min at 37° C. in a tissue culture flask to remove macrophages by adherence. • The size and quantity of the flask and the volume used depends on the amount of cells.

Setting [3] is: person, tumor of unknown primary, maximum apoptotic response over the concentrations tested.
Setting [4] is: KU compared per patient, % of 11 patients.
The mark [5] stands for this setting: KU compared per patient, % of 35 patients.

Consider `COc1cc([C@@H]2c3cc4c(cc3[C@@H](O[C@@H]3O[C@@H]5CO[C@@H](C)O[C@H]5[C@H](O)[C@H]3O)[C@H]3COC(=O)[C@H]23)OCO4)cc(OC)c1O` [Etoposide, etoposide], for which the “Max Resp. (KU)” value in assay [1] (setting [3]) was determined as 0.8 KU. In addition, in assay [2], the “KU Mean” value is recorded as 1.3 KU and the “KU Median” value came to 1.3 KU.

Take `Nc1ccn([C@@H]2O[C@H](CO)[C@@H](O)C2(F)F)c(=O)n1` [Gemzar, gemcitabine]: the “Max Resp. (KU)” value in assay [1] (setting [3]) stood at 0.8 KU. In addition, in assay [2], the “KU Mean” value was found to be 1.0 KU and the “KU Median” value was 0.8 KU.

As for `O=P1(NCCCl)OCCCN1CCCl` (stereo not drawn) [Ifosfamide, ifosfamide], in assay [1] (setting [3]), the “Max Resp. (KU)” value was 2.6 KU. Moreover, in assay [2] (setting [4]), the “Ifosf > Cytox + 0.57” value is “(0%)”. In addition, in assay [2], the “KU Mean” value is on record as 1.7 KU and the “KU Median” value is 1.5 KU.

As for `CN(Cc1cnc2nc(N)nc(N)c2n1)c1ccc(C(=O)N[C@@H](CCC(=O)O)C(=O)O)cc1` [Methotrexate, methotrexate], in assay [1] (setting [3]), the “Max Resp. (KU)” value is 0.8 KU. In assay [2], the “KU Mean” value is recorded as 0.9 KU and the “KU Median” value was 0.9 KU.

Take `O=C1[O][Pt]2([NH][C@@H]3CCCC[C@H]3[NH]2)[O]C1=O` [Oxali, oxaliplatin]: in assay [1], the “Max Resp. (KU)” value is 6.7 KU. In addition, in assay [2] (setting [4]), the “Carbo and Cisplatin and Oxali < 1” value is given as “(9%)”; the “Max (Carbo or Cisplatin) = Oxali +/− 0.57 and both > 1” value is given as “(36%)”; the “Max (Carbo or Cisplatin) > Oxali by more than 0.57 and Max (Carbo or Cisplatin) > 1” value is listed as “(36%)”; the “Oxali > Max (Carbo or Cisplatin) + 0.57” value is given as “(9%)”. In assay [2], the “KU Mean” value stood at 1.9 KU and the “KU Median” value came out at 1.8 KU. Also, in assay [2] (patient pairwise comparison, drug minus Carbo), the “Mean Difference (95% CI) of KU vs Carbo” value was 0.34 KU. Also, the “% >1” value in assay [2] (share of samples with KU >1) turned out to be 82%. In addition, the “% >3” value in assay [2] (share of samples with KU >3) is recorded as 9%.

Turning to `CC(=O)O[C@H]1C(=O)[C@@]2(C)[C@H]([C@H](OC(=O)c3ccccc3)[C@]3(O)C[C@H](OC(=O)[C@H](O)[C@@H](NC(=O)c4ccccc4)c4ccccc4)C(C)=C1C3(C)C)[C@]1(OC(C)=O)CO[C@@H]1C[C@@H]2O` [Taxol, paclitaxel], in assay [1] (setting [3]), the “Max Resp. (KU)” value was found to be 1.6 KU. In assay [2], the “KU Mean” value was 2.1 KU and the “KU Median” value was 1.9 KU. Moreover, the “Mean Difference (95% CI) of KU vs Abraxane” value in assay [2] (patient pairwise comparison) was determined as 1.20 KU.

Take `CC(=O)O[C@@]12CO[C@@H]1C[C@H](O)[C@@]1(C)C(=O)[C@H](O)C3=C(C)[C@@H](OC(=O)[C@H](O)[C@@H](NC(=O)OC(C)(C)C)c4ccccc4)C[C@@](O)([C@@H](OC(=O)c4ccccc4)[C@H]21)C3(C)C` [Taxotere, docetaxel]: in assay [1] (setting [3]), the “Max Resp. (KU)” value is recorded as 2.3 KU. Besides, in assay [2] (setting [5]), the “Taxol and Taxotere < 1” value is given as “(14%)”; the “Taxotere = Taxol +/− 0.57 and both > 1” value is reported as “(17%)”; the “Taxotere > Taxol by more than 0.57 and Taxotere > 1” value was “(37%)”. In addition, in assay [2] (KU compared per patient, % of 35 patients, listed as docetaxel), the “Taxotere > Taxol by more than 0.57 and Taxotere > 1” value turned out to be 37%. In assay [2], the “KU Mean” value was found to be 2.1 KU and the “KU Median” value is recorded as 1.9 KU. Moreover, the “Mean Difference (95% CI) of KU vs Abraxane” value in assay [2] (patient pairwise comparison) is 0.98 KU. Further, the “Mean Difference (95% CI) of KU vs Taxol” value in assay [2] (patient pairwise comparison, drug minus Taxol) is reported as 0.05 KU.

Consider `CC[C@]1(O)C[C@H]2CN(CCc3c([nH]c4ccccc34)[C@@](C(=O)OC)(c3cc4c(cc3OC)N(C=O)[C@H]3[C@@](O)(C(=O)OC)[C@H](OC(C)=O)[C@]5(CC)C=CCN6CC[C@]43[C@@H]65)C2)C1` [Vincristine, vincristine], for which the “Max Resp. (KU)” value in assay [1] (setting [3]) came to 0.9 KU. Moreover, in assay [2], the “KU Mean” value worked out at 1.1 KU and the “KU Median” value is 1.0 KU.
